# Test results published in US10399988B2, “4-aminopyrazolo[3,4-d]pyrimidinylazabicyclo derivatives and pharmaceutical composition comprising the same” (Daewoong Pharmaceutical Co., Ltd., priority 2016, dated 2019).
# pIC50: −log10 of the molar value. Counter-ions that a name gives are not always drawn.
# Molecular target: BTK (Homo sapiens, UniProt Q06187)
# Assay: Inhibitory activity against BTK (ADP-Glo + BTK Kinase enzyme system kit)
# Sequence of BTK (Q06187 whole entry): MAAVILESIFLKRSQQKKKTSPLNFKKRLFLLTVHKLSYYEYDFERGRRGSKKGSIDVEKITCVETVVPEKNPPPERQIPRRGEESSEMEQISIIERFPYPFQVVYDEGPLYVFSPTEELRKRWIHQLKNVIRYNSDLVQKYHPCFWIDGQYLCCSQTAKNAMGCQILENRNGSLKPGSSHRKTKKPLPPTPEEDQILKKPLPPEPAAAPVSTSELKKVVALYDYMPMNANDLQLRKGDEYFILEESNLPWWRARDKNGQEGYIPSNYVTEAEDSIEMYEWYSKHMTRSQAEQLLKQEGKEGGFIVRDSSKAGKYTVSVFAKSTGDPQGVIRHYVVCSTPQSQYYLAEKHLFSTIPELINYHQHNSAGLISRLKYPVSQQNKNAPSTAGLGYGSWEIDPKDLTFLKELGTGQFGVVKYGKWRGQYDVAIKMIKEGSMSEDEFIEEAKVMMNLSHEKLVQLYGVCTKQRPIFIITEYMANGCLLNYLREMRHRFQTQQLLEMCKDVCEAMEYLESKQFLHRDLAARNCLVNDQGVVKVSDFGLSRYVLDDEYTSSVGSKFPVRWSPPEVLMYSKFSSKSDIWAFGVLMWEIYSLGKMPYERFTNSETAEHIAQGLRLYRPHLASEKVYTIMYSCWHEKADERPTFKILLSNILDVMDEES
row,pIC50,Compound
1,< 6.00,"C=CC(=O)N1CC2CC1C(n1nc(-c3ccc(Oc4ccncc4)cc3)c3c(N)ncnc31)C2 (stereo not shown) [Ex. 36, 1-(6-(4-amino-3-(4-(pyridin-4-yloxy)phenyl)-1H-pyrazolo[3,4-d]pyrimidin-1-yl)-2-azabicyclo[2.2.1]heptan-2-yl)prop-2-en-1-one]"
2,8.29,"C=CC(=O)N1CC2CC1C(n1nc(-c3ccc(NC(=O)c4ccccc4)cc3)c3c(N)ncnc31)C2 (stereo not shown) [Ex. 37, N-(4-(1-(2-acryloyl-2-azabicyclo[2.2.1]heptan-6-yl)-4-amino-1H-pyrazolo[3,4-d]pyrimidin-3-yl)phenyl)benzamide]"
3,6.70,"C/C=C/C(=O)N1CC2CC1C(n1nc(-c3ccc(Oc4ccccc4)cc3)c3c(N)ncnc31)C2 (stereo not shown) [Ex. 3, (E)-1-(6-(4-amino-3-(4-phenoxyphenyl)-1H-pyrazolo[3,4-d]pyrimidin-1-yl)-2-azabicyclo[2.2.1]heptan-2-yl)but-2-en-1-one]"
4,6.91,"N#CCC(=O)N1C[C@@H]2C[C@@H]1[C@@H](n1nc(-c3ccc(C(=O)Nc4ccccn4)cc3)c3c(N)ncnc31)C2 [Ex. 74, 4-(4-amino-1-((1R,4R,6S)-2-(2-cyanoacetyl)-2-azabicyclo[2.2.1]heptan-6-yl)-1H-pyrazolo[3,4-d]pyrimidin-3-yl)-N-(pyridin-2-yl)benzamide]"
5,7.06,"C=CC(=O)N1CC2CC1C(n1nc(-c3cccc(C(=O)Nc4ccc(C(C)C)c(C)c4)c3)c3c(N)ncnc31)C2 (stereo not shown) [Ex. 10, 3-(1-(2-acryloyl-2-azabicyclo[2.2.1]heptan-6-yl)-4-amino-1H-pyrazolo[3,4-d]pyrimidin-3-yl)-N-(4-isopropyl-3-methylphenyl)benzamide]"
6,8.70,"C#CC(=O)N1C[C@@H]2C[C@H]1C[C@H]2n1nc(-c2ccc(Oc3ccccc3)cc2)c2c(N)ncnc21 [Ex. 13, 1-((1S,4S,5R)-5-(4-amino-3-(4-phenoxyphenyl)-1H-pyrazolo[3,4-d]pyrimidin-1-yl)-2-azabicyclo[2.2.1]heptan-2-yl)prop-2-yn-1-one]"
7,7.77,"C=CC(=O)N1CC2CC1C(n1nc(-c3ccc(C(=O)Nc4cc(C(F)(F)F)ccn4)cc3)c3c(N)ncnc31)C2 (stereo not shown) [Ex. 29, 4-(1-(2-acryloyl-2-azabicyclo[2.2.1]heptan-6-yl)-4-amino-1H-pyrazolo[3,4-d]pyrimidin-3-yl)-N-(4-(trifluoromethyl)pyridin-2-yl)benzamide]"
8,7.56,"CC#CC(=O)N1CC2CC1C(n1nc(-c3ccc(Oc4ccccc4)cc3)c3c(N)ncnc31)C2 (stereo not shown) [Ex. 5, 1-(6-(4-amino-3-(4-phenoxyphenyl)-1H-pyrazolo[3,4-d]pyrimidin-1-yl)-2-azabicyclo[2.2.1]heptan-2-yl)but-2-yn-1-one]"
9,6.87,"CN1CCN(C/C=C/C(=O)N2CC3CC2C(n2nc(-c4ccc(C(=O)Nc5ccccn5)cc4)c4c(N)ncnc42)C3)CC1 (stereo not shown) [Ex. 61, (E)-4-(4-amino-1-(2-(4-(4-methylpiperazin-1-yl)but-2-enoyl)-2-azabicyclo[2.2.1]heptan-6-yl)-1H-pyrazolo[3,4-d]pyrimidin-3-yl)-N-(pyridin-2-yl)benzamide]"
10,7.96,"C=CC(=O)N1CC2CC1C(n1nc(-c3ccc(C(=O)Nc4cccc(C(C)C)c4)cc3)c3c(N)ncnc31)C2 (stereo not shown) [Ex. 47, 4-(1-(2-acryloyl-2-azabicyclo[2.2.1]heptan-6-yl)-4-amino-1H-pyrazolo[3,4-d]pyrimidin-3-yl)-N-(3-isopropylphenyl)benzamide]"
11,8.20,"C=CC(=O)N1CC2CC1C(n1nc(-c3ccc(C(=O)Nc4cccc(C(F)(F)F)n4)cc3)c3c(N)ncnc31)C2 (stereo not shown) [Ex. 70, 4-(1-(2-acryloyl-2-azabicyclo[2.2.1]heptan-6-yl)-4-amino-1H-pyrazolo[3,4-d]pyrimidin-3-yl)-N-(6-(trifluoromethyl)pyridin-2-yl)benzamide]"
12,7.53,"C=CC(=O)N1CC2CC1C(n1nc(-c3ccc(COC)cc3)c3c(N)ncnc31)C2 (stereo not shown) [Ex. 27, 1-(6-(4-amino-3-(4-(methoxymethyl)phenyl)-1H-pyrazolo[3,4-d]pyrimidin-1-yl)-2-azabicyclo[2.2.1]heptan-2-yl)prop-2-en-1-one]"
13,7.27,"C#CC(=O)N1CC2CC1C(n1nc(-c3cccc(C(=O)Nc4ccc(C(C)C)c(C)c4)c3)c3c(N)ncnc31)C2 (stereo not shown) [Ex. 9, 3-(4-amino-1-(2-propioloyl-2-azabicyclo[2.2.1]heptan-6-yl)-1H-pyrazolo[3,4-d]pyrimidin-3-yl)-N-(4-isopropyl-3-methylphenyl)benzamide]"
14,< 6.00,"CCC#CC(=O)N1CC2CC1C(n1nc(-c3ccc(Oc4ccccc4)cc3)c3c(N)ncnc31)C2 (stereo not shown) [Ex. 16, 1-(6-(4-amino-3-(4-phenoxyphenyl)-1H-pyrazolo[3,4-d]pyrimidin-1-yl)-2-azabicyclo[2.2.1]heptan-2-yl)pent-2-yn-1-one]"
15,6.97,"C=CC(=O)N1CC2CC1C(n1nc(-c3ccc(Oc4cccc(N)c4)cc3)c3c(N)ncnc31)C2 (stereo not shown) [Ex. 51, 1-(6-(4-amino-3-(4-(3-aminophenoxy)phenyl)-1H-pyrazolo[3,4-d]pyrimidin-1-yl)-2-azabicyclo[2.2.1]heptan-2-yl)prop-2-en-1-one hydrochloride]"
16,7.44,"CN(C)C/C=C/C(=O)N1CC2CC1C(n1nc(-c3ccc(C(=O)Nc4ccccn4)cc3)c3c(N)ncnc31)C2 (stereo not shown) [Ex. 60, (E)-4-(4-amino-1-(2-(4-(dimethylamino)but-2-enoyl)-2-azabicyclo[2.2.1]heptan-6-yl)-1H-pyrazolo[3,4-d]pyrimidin-3-yl)-N-(pyridin-2-yl)benzamide]"
17,6.85,"C=CC(=O)N1CC2CC1C(n1nc(-c3ccc(C(=O)Nc4cnn(C)c4)cc3)c3c(N)ncnc31)C2 (stereo not shown) [Ex. 56, 4-(1-(2-acryloyl-2-azabicyclo[2.2.1]heptan-6-yl)-4-amino-1H-pyrazolo[3,4-d]pyrimidin-3-yl)-N-(1-methyl-1H-pyrazol-4-yl)benzamide]"
18,7.50,"C#CC(=O)N1CC2CC1C(n1nc(-c3cccc(C(=O)Nc4ccc(C(C)C)cc4)c3)c3c(N)ncnc31)C2 (stereo not shown) [Ex. 7, 3-(4-amino-1-(2-propioloyl-2-azabicyclo[2.2.1]heptan-6-yl)-1H-pyrazolo[3,4-d]pyrimidin-3-yl)-N-(4-isopropylphenyl)benzamide]"
19,7.60,"Nc1ncnc2c1c(-c1ccc(Oc3ccccc3)cc1)nn2C1CC2CC1N(C(=O)C#CC1CC1)C2 (stereo not shown) [Ex. 28, 1-(6-(4-amino-3-(4-phenoxyphenyl)-1H-pyrazolo[3,4-d]pyrimidin-1-yl)-2-azabicyclo[2.2.1]heptan-2-yl)-3-cyclopropylprop-2-yn-1-one]"
20,8.24,"CN1CCN(C/C=C/C(=O)N2CC3CC2C(n2nc(-c4ccc(Oc5ccccc5)cc4)c4c(N)ncnc42)C3)CC1 (stereo not shown) [Ex. 62, (E)-1-(6-(4-amino-3-(4-phenoxyphenyl)-1H-pyrazolo[3,4-d]pyrimidin-1-yl)-2-azabicyclo[2.2.1]heptan-2-yl)-4-(4-methylpiperazin-1-yl)but-2-en-1-one]"
21,7.30,"Nc1ncnc2c1c(-c1ccc(Oc3ccccc3)cc1)nn2C1CC2CC1CN2C(=O)/C=C/CN1CCCCC1 (stereo not shown) [Ex. 66, (E)-1-(5-(4-amino-3-(4-phenoxyphenyl)-1H-pyrazolo[3,4-d]pyrimidin-1-yl)-2-azabicyclo[2.2.1]heptan-2-yl)-4-(piperidin-1-yl)but-2-en-1-one]"
22,7.82,"C=CC(=O)N1CC2CC1C(n1nc(-c3ccc(NC(=O)Nc4ccccc4)cc3)c3c(N)ncnc31)C2 (stereo not shown) [Ex. 39, 1-(4-(1-(2-acryloyl-2-azabicyclo[2.2.1]heptan-6-yl)-4-amino-1H-pyrazolo[3,4-d]pyrimidin-3-yl)phenyl)-3-phenylurea]"
